Reference: paper PMC10537354, “Pyrenebutyrate Enhances the Antibacterial Effect of Peptide-Coupled Antisense Peptide Nucleic Acids in Streptococcus pyogenes” (Microorganisms, 2023)

Tests used:
[1] = test system: S. pyogenes serotype M49 strain 591; test: Bacterial killing assay, S. pyogenes; type: cell-based, Streptococcus pyogenes; conditions: 6 h; for log CFU reduction: S. pyogenes M49 591, 5 µM CPP–PNA, n = 5
Protocol: (§1) S. pneumoniae serotype 4 strain TIGR4: after culturing, S. pneumoniae serotype 4 strain TIGR4 was diluted to approximately 10^5 CFU/mL in phosphate-buffered saline (PBS)/THY (95%/5%). S. pyogenes serotype M49 strain 591: An overnight culture of S. pyogenes serotype M49 strain 591 was diluted to approximately 10^5 CFU/mL in PBS/BHI (70%/30%). An amount of 400 µL of the respective bacterial suspension was transferred to a 2 mL polypropylene reaction tube. 4-(1-pyrenyl)-butyric acid (Merck, Darmstadt, Germany) was dissolved to 1 M in DMSO. The solution was stored in the dark and further dilution steps were performed in PBS and 3% DMSO. An amount of 50 µL PyB in PBS/DMSO was added to the bacterial suspension at a final concentration of 50–400 µM and pre-incubated for 10 min at 37 °C and 7 rpm (Rotor SB3, Stuart, Staffordshire, UK). An amount of 50 µL PBS served as a mock control. Following pre-incubation, 50 µL of CPP–PNA solution was added to a final concentration of 5–10 µM or as indicated. An amount of 50 µL molecular grade H2O served as a mock control. The reaction tubes were incubated for another 6 h at 37 °C and 7 rpm. Killing kinetics were observed over 12 h. Samples were collected at time points of 2–12 h following addition of CPP–PNAs, and bacteria were plated on BHI solid medium following serial dilution. Agar plates were incubated for 24 h at 37 °C under a 5% CO2 atmosphere and CFUs were counted. The bacterial count at the beginning of the experiment was 1–3 × 10^5 CFU/mL. Each experiment was conducted at least three times in independent biological replicates.

[2] = test system: S. pneumoniae serotype 4 strain TIGR4; test: Bacterial killing assay, S. pneumoniae; type: cell-based, Streptococcus pneumoniae; conditions: for Significance of the effect of PyB pre-treatment on antimicrobial efficacy (CFU reduction): S. pneumoniae TIGR4, 10 µM CPP–PNA, 200 µM PyB 10 min pre-treatment vs none, one-way ANOVA; for Change of antibacterial activity in the presence of PyB (non-significant trend): S. pneumoniae TIGR4, 200 µM PyB pre-treatment, related to proportion of positively charged residues of the CPP; for log CFU reduction: S. pneumoniae TIGR4, CPP-anti-gyrA PNA (10 µM in this experiment), without PyB
Protocol: as §1, with “The bacterial count at the beginning of the experiment was 1–3 × 10^5 CFU/mL.” left out

[3] = test system: S. pyogenes serotype M49 strain 591; test: In vitro time killing assay (killing kinetics over 12 h); type: cell-based, Streptococcus pyogenes; conditions: n = 3
Protocol: as §1
Therefore, the kinetics of the antimicrobial activity of K8-conjugated anti-gyrA PNA in the presence of PyB were studied in an in vitro time killing assay in S. pyogenes. Bacteria were treated with 2.5 or 5 μM CPP-antisense PNAs or scrambled control PNAs (Figure 3) with or without pre-treatment with 100 µM PyB. Samples were collected at 2, 4, 6, and 12 h following antisense treatment. CFUs per milliliter were determined by plating of serial dilutions and plotted over time. Untreated bacteria grew by 1–1.5 log CFU over the course of the experiment. […] Following treatment with 2.5 µM K8-conjugated scPNA, no reduction in bacterial counts was observed throughout the experiment. Upon treatment with 5 µM K8-conjugated scPNA, growth was reduced by 0.6 log CFU in comparison to the untreated control, indicating an inhibitory effect of the CPP under these conditions. Overall, pre-treatment with PyB enhanced the activity of K8-anti-gyrA PNA and allowed the eradication of S. pyogenes in vitro.

Compound: O=C(O)CCCc1ccc2ccc3cccc4ccc1c2c34 [PyB, 4-(1-pyrenyl)-butyric acid, reference compound]
- Toxicity of PyB (CFU/mL compared to untreated control) ([1]; S. pyogenes 591, 5 × 10^5 CFU/mL, PyB alone 50–200 µM, stated up to 200 µM, n = 4): No significant toxicity
- Viable counts after treatment with PyB ([1]; S. pyogenes, 200 µM PyB alone, n = 4): decreased slightly
- Toxicity of PyB (CFU/mL compared to untreated control) ([2]; S. pneumoniae TIGR4, 8 × 10^5 CFU/mL, PyB alone 50–400 µM, 6 h, stated up to 400 µM, n = 4): unaffected

Compound: KKKKKKKK-eg-attagactgt [K8-anti-gyrA scPNA, Oligolysin (K8) coupled to scrambled control PNA attagactgt, S. pyogenes]
- Reduction in bacterial counts throughout the experiment ([3]; 2.5 µM scrambled control, 12 h): no reduction
- Growth reduction in comparison to the untreated control ([3]; 5 µM scrambled control, 12 h course): 0.6 log CFU

Compound: KKKKKKKK-eg-tgcatttaag [K8-anti-gyrA PNA, Oligolysin (K8) coupled to anti-gyrA PNA tgcatttaag, S. pyogenes]
- log CFU reduction ([1]; after pre-treatment with 100 µM PyB for 10 min): 4.8 log CFU
- log CFU reduction ([1]; without PyB pre-treatment, PBS/BHI (70%/30%)): 3.7 log CFU
- Time until clearance of S. pyogenes CFUs ([3]; 5 µM, after pre-treatment with 100 µM PyB): 12 h
- Eradication of S. pyogenes during the course of the assay ([3]; 2.5 or 5 µM, without PyB, 12 h): not eradicated
- Viable bacteria over time ([3]; 2.5 or 5 µM, without PyB, samples at 2, 4, 6, 12 h): constant decrease

Compound: RQIRIWFQNRRMRWRR-eg-tgcattaata [PenArg-anti-gyrA PNA, PenArg coupled to anti-gyrA PNA tgcattaata, S. pneumoniae]
- Significance of the effect of PyB pre-treatment on antimicrobial efficacy (CFU reduction) ([2]; 6 h): no significant effect
- Change of antibacterial activity in the presence of PyB (non-significant trend) [2]: not enhanced
- log CFU reduction ([2]; 6 h): 3.3 log CFU

Compound: RRRRRRRRR-eg-tgcattaata [R9-anti-gyrA PNA, R9 coupled to anti-gyrA PNA tgcattaata, S. pneumoniae]
- Significance of the effect of PyB pre-treatment on antimicrobial efficacy (CFU reduction) ([2]; 6 h): no significant effect
- Change of antibacterial activity in the presence of PyB (non-significant trend) [2]: slightly increased
- log CFU reduction ([2]; 6 h): 4 log CFU

Compound: RXRRXRRXRRXRXB-eg ^1 -tgcatttaag [(RXR)4XB-anti-gyrA PNA, (RXR)4XB coupled via eg linker to anti-gyrA PNA tgcatttaag, S. pyogenes]
- Significance of the effect of PyB pre-treatment on antimicrobial efficacy (CFU reduction) ([2]; 6 h): did not significantly enhance
- Change of antibacterial activity in the presence of PyB (non-significant trend) [2]: not enhanced
